row,Compound,melting point [°C]
1,c1cnc(N2CCN(c3ncccn3)CC2)nc1,144 to 146
2,Cc1ccc(-n2nc(C(=O)O)c3c2CCC3)c(C)c1,198 to 200
3,NNC(=O)c1cnccn1,170 to 172
4,O=C(NC1CCCCC1)OCC(F)(F)F,78 to 82
5,Cn1ncc(C(=O)O)c1C1CC1,104 to 106
6,Cn1cc(CO)nn1,29 to 31
7,COCCNC(=S)NN,85 to 87
8,O=C(O)c1cc(S(=O)(=O)N2CCCC2)ccc1Br,216 to 218
9,Clc1ncnc2c1nnn2-c1ccccc1,115 to 117
10,NCCCCN1CCN(CCO)CC1,90 to 92
11,CCCCCS(=O)(=O)CC(=O)O,69 to 71
12,O=C(O)C1CCN(C(=O)N2CCCC2)CC1,144 to 146
13,CN1CCN(C(=O)Cc2cccc(N)c2)CC1,138 to 140
14,O=C(O)c1cc(S(=O)(=O)Cl)c(F)cc1Br,148 to 150
15,CCCc1cc(Cl)n2ncnc2n1,67 to 69
16,O=S(=O)(c1ccc2oc(S)nc2c1)N1CCOCC1,251 to 253
17,CN(C)Cc1nc(Cl)c2c(-c3ccccc3)csc2n1,114 to 116
18,COc1cc(C(=O)O)c(N)cc1OC(F)F,152 to 154
19,Cn1nnnc1S(C)(=O)=O,64 to 66
20,CC(C)CCNC(N)=O,43 to 45
21,O=C(O)CC(=O)NC1CC1,99 to 101
22,O=C(O)c1sc2cc(Cl)cc(Cl)c2c1Cl,248 to 250
23,COc1cc(-c2noc(CCl)n2)ccc1C,73 to 75
24,O=c1ccc(=O)n(-c2ccc([N+](=O)[O-])cc2)[nH]1,308 to 310
25,CCOC(=O)/C=C1/SCC(=O)N1Cc1cc(C(C)=O)ccc1OCC,175 to 177

row,Compound,melting point [°C]
1,CC(C)CC(N)C(=O)Nc1nccs1 (stereo unspecified),99 to 101
2,Cc1c(C(=O)O)sc2nc(C(F)(F)F)ccc12,265 to 267
3,Brc1ccccc1-c1nc2cccnc2[nH]1,196 to 198
4,CCN1CCN(c2ccccc2N)CC1,39 to 43
5,O=C(O)C(NCC(F)(F)F)c1cc(Br)cs1 (stereo unspecified),178 to 180
6,O=C(O)c1cc(F)c(F)cc1C(=O)O,158 to 160
7,COc1ccccc1-c1cc(C(=O)O)c2c(C)noc2n1,229 to 231
8,Cc1nn(-c2ccc(F)cc2)c2[nH]nc(N)c12,168 to 170
9,Nc1ccnc(-c2ccccc2)c1,126 to 128
10,COc1ccc2cc(-c3cc(C(=O)O)c4ccccc4n3)ccc2c1,258 to 260
11,CN(C)S(=O)(=O)c1ccc(O)c(N)c1,154 to 156
12,COc1cc(C)sc1C(=O)O,159 to 161
13,Cc1cc(-n2c(C)c[nH]c2=O)no1,134 to 136
14,O=c1[nH]ccnc1Cl,159 to 161
15,COc1ccccc1NS(=O)(=O)c1cc(N)ccc1N1CCCC1,159 to 161
16,CN1CCN(c2ccc(C=O)cc2F)CC1,65 to 67
17,CC(=O)NC1(C(=O)O)CCC(C)CC1 (stereo unspecified),211 to 213
18,O=C(CCl)N1N=C(c2ccco2)CC1c1cccs1 (stereo unspecified),153 to 155
19,Cc1nn(C)c(Cl)c1CC(=O)O,169 to 171
20,O=C(O)CN1CCCOC1=O,172 to 174
21,Cc1cccc(N2CCN(Cc3ccc(N)cc3)CC2)c1,103 to 105
22,O=C(c1ccc(Cl)c([N+](=O)[O-])c1)N1CCCCC1,74 to 76
23,CC(C)C(=O)N1CCCCC1C(=O)O (stereo unspecified),123 to 125
24,O=S(=O)(c1cccc(CO)c1)N1CCOCC1,96 to 98
25,Clc1nc(-c2ccccn2)nc2c1CCC2,142 to 144

row,Compound,melting point [°C]
1,Nc1cc(-c2ccc(Cl)cc2)no1,164 to 166
2,Clc1cc(-c2ccccc2)c2ccccc2n1,85 to 89
3,CC(C)c1cc(N)n(-c2ncccn2)n1,146 to 148
4,Cc1cc(N2CCNCC2)nc(C(C)C)n1,42 to 46
5,Clc1ccnc2[nH]ccc12,176 to 181
6,O=C(O)CSc1nnnn1CC(F)(F)F,135 to 137
7,O=C(O)C1CC(=O)N(C2CCCCCC2)C1 (stereo unspecified),165 to 167
8,c1ccc(CCCc2nnn[nH]2)cc1,90 to 92
9,ClCc1nc(-c2ccco2)no1,82 to 84
10,O=Cc1cn(-c2ccccc2)nc1-c1ccc(Br)cc1,141 to 143
11,Sc1nccn1Cc1ccccn1,173 to 175
12,Oc1cc(Cl)cnc1Br,144 to 146
13,Cc1noc(C(F)F)c1C(=O)O,134 to 136
14,O=C(O)CSCC(=O)N1CCCCC1,91 to 93
15,COc1ccccc1NC(=O)c1c(C)n[nH]c1N,178 to 182
16,CC(=O)N1CCN(Cc2cccc(N)n2)CC1,169 to 171
17,Nc1c(Cl)cc(S(=O)(=O)Cl)cc1Cl,134 to 136
18,Nc1nc(-c2ccccc2)c(-c2ncc[nH]2)s1,256 to 258
19,Nc1ccc(Cl)c(S(=O)(=O)N2CCCCC2)c1,92 to 96
20,CCOc1cccc(C=CC(=O)O)c1OC1CCCCC1,137 to 139
21,O=C(O)CN1C(=O)C2C3C=CC(C3)C2C1=O (stereo unspecified),146 to 148
22,CNc1cc(Cl)ncn1,138 to 140
23,O=C1CC2CCCN2c2ccccc2N1 (stereo unspecified),139 to 141

# Next, values leading:
row,melting point [°C],Compound
1,65 to 67,Cc1ccc(C(=O)COc2ccc(C=O)cc2)cc1C
2,219 to 221,NS(=O)(=O)c1ccc(C(=O)O)cn1
3,149 to 151,CC(C)S(=O)(=O)c1ccccc1C(=O)O
4,109 to 111,COc1ccc(NC(=O)C(C)Cl)cc1OC (stereo unspecified)
5,160 to 162,CCN(c1ccccc1)S(=O)(=O)c1cc(C(=O)O)ccc1C
6,174 to 176,Cc1c(C(=O)O)cnn1-c1ccccn1
7,251 to 253,Nc1cc(NC(=O)Cn2cccnc2=O)ccc1F
8,97 to 99,NCc1ccc(N2CCS(=O)(=O)CC2)cc1
9,179 to 181,CC(=O)Nc1ccccc1OCc1ccc(C(=O)O)o1
10,83 to 85,CC(=O)CC(=O)Nc1cccnc1Cl
11,187 to 189,Cc1nc(C(=O)O)c2ccccn12
12,88 to 90,Cc1cccc(Cn2[nH]ccc2=NC(=O)CCl)c1
13,138 to 140,O=C(O)c1ccn(-c2ccccc2)n1
14,98 to 100,O=Cc1ccc(OCc2ncon2)cc1
15,175 to 182,O=C(O)c1cnn(-c2ccccc2)c1
16,168 to 170,Cc1ccc(N2C(=O)CSC2=S)cc1
17,281 to 283,O=C1CCNc2ccc(C(=O)O)cc2N1
18,208 to 210,Cc1oncc1C(=O)Nc1ccc(CC(=O)O)cc1
19,225 to 227,N#Cc1ccc(NCC(=O)O)cc1
20,117 to 119,CCOC(=O)c1csc(Nc2ccc(OC)cc2)n1
21,240 to 242,O=C(O)CC1Sc2ccc(Cl)cc2NC1=O (stereo unspecified)
22,182 to 184,CC(SC1=NS(=O)(=O)c2ccccc21)C(=O)O (stereo unspecified)
23,239 to 241,Nc1ccc(N2C(=O)CCC2=O)cc1

row,melting point [°C],Compound
1,112 to 114,Cc1ccc(-n2nnnc2S)cc1
2,198 to 200,COc1ccc(S(=O)(=O)NC(C)(C)C)c(CC(=O)O)c1
3,110 to 112,CC(N)c1ccc(NC(=O)c2ccc(F)cc2)cc1 (stereo unspecified)
4,91 to 93,COc1cc(OC)cc(C(=O)NCC(=O)O)c1
5,197 to 199,CCc1nc(C(=O)O)nn1-c1c(Cl)cccc1Cl
6,207 to 209,O=C1CCc2cc(C(=O)c3ccccc3)ccc2N1
7,154 to 156,Nc1ccc(O)cc1C(=O)NCc1ccccc1
8,40 to 42,CC(CSc1ccccc1)C(=O)O (stereo unspecified)
9,161 to 163,Cc1c(N)cccc1C(=O)Nc1ccccc1
10,207 to 209,Nc1c(C(=O)O)ccc2cccnc12
11,150 to 152,COC(=O)c1ccc(NS(=O)(=O)c2ccc(C)cc2)cc1
12,215 to 217,O=C(O)c1cc2ccccc2cc1I
13,112 to 114,ClCc1coc(-c2ccc(Br)cc2)n1
14,152 to 154,O=C(O)CC(O)(c1nccn1Cc1ccccc1)C(F)(F)F (stereo unspecified)
15,126 to 128,CC(CC(=O)O)S(=O)(=O)c1ccc(F)cc1 (stereo unspecified)
16,58 to 60,CNCC(=O)Nc1ccc(Cl)cc1
17,67 to 69,NCC(O)Cc1ccccc1 (stereo unspecified)
18,204 to 206,NNC(=O)c1cc2sccc2cn1
19,236 to 238,CCN(CC)C1=NC(=O)C(CC(=O)Nc2cccc(C(=O)O)c2)S1 (stereo unspecified)
20,107 to 109,CC(=O)N1CCN(c2cc(C#N)ccn2)CC1
21,184 to 186,O=C(O)c1cc(Cl)ccc1NS(=O)(=O)c1ccccc1
22,193 to 195,O=C(CCl)NCc1ccc(C(=O)O)cc1
23,139 to 141,CC(C)C(=O)N(C)Cc1ccc(C(=O)O)cc1

row,melting point [°C],Compound
1,158 to 160,CCc1ccc(C(=O)O)cc1[N+](=O)[O-]
2,129 to 131,Nc1ccc(OCc2ccncc2)cc1
3,173 to 175,O=C(O)CNc1ccccc1Cl
4,152 to 154,CN(C(=O)c1ccc(Cl)cc1)c1ccc(N)cc1
5,69 to 71,CC(=CC(=O)O)c1ccccc1OC(F)F
6,235 to 237,Nc1c(C(=O)O)ccc(Cl)c1Cl
7,137 to 139,CC(=O)c1ccc(N2CCCS2(=O)=O)cc1
8,116 to 118,COc1ccc(NC(=O)C2(N)CCCC2)cc1OC
9,59 to 61,COC(=O)C(N)c1ccc(OC)cc1 (stereo unspecified)
10,253 to 255,O=C(O)c1ccc(-c2ccc(Cl)c(Cl)c2)s1
11,273 to 275,O=C(O)c1sc2cccc(Cl)c2c1Cl
12,91 to 93,O=C(c1ccc(Cl)cc1)c1ncccn1
13,144 to 146,CC(=O)NCCc1ccc(S(N)(=O)=O)s1
14,207 to 209,O=C(O)CSc1nncn1-c1ccccc1
15,194 to 196,O=C(Nc1ccn[nH]1)OCc1ccccc1
16,176 to 178,O=C(O)C1(c2ccc(Br)cc2)CCCC1
17,94 to 96,Cc1nc(-c2cccc(NC(=O)OCC(F)(F)F)c2)cs1
18,179 to 181,Cc1cc(C(=O)NCC(=O)O)c(C)o1
19,76 to 78,COC(=O)c1cc2cccc(Br)c2o1
20,68 to 70,C=CC(=O)Nc1ccccc1OC
21,83 to 85,CC(=O)c1ccn(S(=O)(=O)c2ccc(C)cc2)c1
22,227 to 229,CC(=O)Nc1c(Cl)cc(Br)c2ccccc12

# Reference: a melting point compilation (Tetko et al.)
